Drawing on patent publication US8450305B2, “Macrocyclic compounds useful as inhibitors of kinases and HSP90” (Universite de Strasbourg, priority 2006, dated 2013), this text covers EC50 for 15 compounds.

The test system of one experiment is HCC1954 tumor cells. Briefly: Cytotoxicity, MTS assay, HCC1954. The settings on record: Homo sapiens, 72 hours. It counts as cell-based. On the procedure:
(§1) Tumor cells were grown as adherent monolayers at 37° C. in a humidified atmosphere (5% CO2, 95% air). The culture medium was RPMI 1640 containing 2 mM L-glutamine (Ref BE12-702F, Cambrex, Verviers, Belgium) and supplemented with 10% fetal bovine serum (Ref DE14-801E, Cambrex). For experimental use, the adherent tumour cells were detached from the culture flask by a 5-minute treatment with trypsin-versene (Ref O2-007E, Cambrex), diluted in Hanks' medium without calcium or magnesium (Ref BE10-543F, Cambrex) and neutralized by addition of complete culture medium. Before use, cells were counted in a hemocytometer and their viability were assessed by 0.25% trypan blue exclusion. Mycoplasma detection was performed using the MycoAlert® Mycoplasma Detection Kit (Ref LT07-318, Cambrex) in accordance with the manufacturer instructions. The MycoAlert®Assay is a selective biochemical test that exploits the activity of mycoplasmal enzymes. The viable mycoplasma are lysed and the enzymes react with the MycoAlert® substrate catalyzing the conversion of ADP to ATP. By measuring the level of ATP in a sample both before and after the addition of the MycoAlert® substrate a ratio can be obtained which is indicative of the presence or absence of mycoplasma. The mycoplasma test was assayed in duplicate from the culture supernatants of the cell lines and compared to negative and positive controls (MycoAlert® Assay Control Set, Ref LT07-518, Cambrex) (Internal Standard Operating Procedure No TEC-007/002). Both HCC1954 and SK-BR-3 tumour cells (5,000 cells per well) were plated in 96-well flat-bottom microtitration plates (Ref 167008, Nunc, Dutscher, Brumath, France) and incubated at 37° C. for 24 hours before treatment in 190 μl of drug-free culture medium supplemented with 10% FBS. Both HCC1954 and SK-BR-3 tumour cell lines were incubated for 72 hours with […], in ¼ dilution steps, of the test substances (ranging from […]) to be tested as well as paclitaxel (ranging from 10^−7 to 10^−12 M). The cells (190 μl) will be incubated in a 200 μl final volume of culture medium supplemented with 10% FBS containing test substances at 37° C. under 5% CO2. One experiment is performed, each concentration being issued from quadruplicate. Control cells are treated with corresponding vehicle alone. At the end of treatments, the cytotoxic activity is evaluated by a MTS assay. […] Like MTT, MTS is bioreduced by cells into a formazan product that is directly soluble in culture medium without processing, unlike MTT.
(§2) At the end of the cells treatment, 40 μl of a 0.22 μm filtered freshly combined solution of MTS (20 ml at 2 mg/ml, Ref G1111A, Promega, Charbonnières, France) and PMS (1 ml at 0.92 mg/ml, Ref P9625, Sigma) in Dulbecco's Phosphate Buffered Saline (DPBS, Ref 17-513F, Cambrex), were added in each well. Culture plates were incubated for 2 h at 37° C. Absorbency (OD) will be measured at 490 nm in each well using VICTOR^3™ 1420 multilabeled counter (Wallac, PerkinElmer, Courtaboeuf, France).
A general note: Formazan colour is commonly taken as a measure of viable cells.

The test system of a further experiment is SK-BR-3 tumor cells. Briefly: Cytotoxicity, MTS assay, SK-BR-3. It counts as cell-based. The settings on record: Homo sapiens, 72 hours. On the procedure:
as §1, §2

In the case of `O=C1OCC/C=C/CC/C=C/C(=NOCc2ccccc2)Cc2c(Cl)c(O)cc(O)c21` [2a-3], the EC50 (as a rule, the concentration that produces a half-maximal response) with HCC1954 tumor cells was 3 µM; with SK-BR-3 tumor cells it was 4.5 µM.

On to `O=C(CON=C1/C=C/CC/C=C/CCOC(=O)c2c(O)cc(O)c(Cl)c2C1)NCCO` [2a-4], for which the values for the EC50 in the experiment with HCC1954 tumor cells and in the experiment with SK-BR-3 tumor cells were over 10 µM and 7.5 µM, respectively.

For `O=C1OCC/C=C\CC/C=C/C(=NOCC(=O)N2CCCCC2)Cc2c(Cl)c(O)cc(O)c21` [2a-5], the results for the EC50 with HCC1954 tumor cells and with SK-BR-3 tumor cells were 9.5 µM and 2.5 µM, respectively.

Regarding `O=C1OCC/C=C/CCCC/C(=N/OCC(=O)N2CCCCC2)Cc2c(Cl)c(O)cc(O)c21` [2a-6], the EC50 in the experiment with HCC1954 tumor cells was 5.2 µM; in the experiment on SK-BR-3 tumor cells, over 10 µM.

On to `C=CCC/C=C/C(Cc1c(Cl)c(O)cc(O)c1C(=O)OCCC=C)=NOCC(=O)N1CCCCC1` [2a-7], for which the EC50 in the experiment on HCC1954 tumor cells and in the experiment with SK-BR-3 tumor cells was over 10 µM each time.

For the compound `CNC(=O)CO/N=C1/C=C/CC/C=C/CCOC(=O)c2c(O)cc(O)c(Cl)c2C1` [2a-8], the EC50 in the experiment with HCC1954 tumor cells and in the experiment on SK-BR-3 tumor cells was over 10 µM throughout.

`C[C@@H]1C/C=C/CC/C=C/C(=N/OCC(=O)N2CCCCC2)Cc2c(Cl)c(O)cc(O)c2C(=O)O1` [2a-9]: the EC50 in the experiment on HCC1954 tumor cells was found to be 0.89 µM; in the experiment with SK-BR-3 tumor cells, 0.45 µM.

Take `COC1CC/C=C/CCOC(=O)c2c(O)cc(O)c(Cl)c2C/C(=N/OCC(=O)N2CCCCC2)C1` (stereo not drawn) [2a-10]: the 50% effective concentration (EC50) in the experiment with HCC1954 tumor cells and in the experiment with SK-BR-3 tumor cells was over 10 µM throughout.

Consider `O=C1OCC/C=C/CC/C=C/C(=NOCC(=O)N2CCCCCC2)Cc2c(Cl)c(O)cc(O)c21` [2a-11], for which the EC50 with HCC1954 tumor cells came out at 0.52 µM; in the experiment with SK-BR-3 tumor cells, 0.31 µM.

Take `C[C@@H]1C/C=C/CC/C=C/C(=O)Cc2c(Cl)c(O)cc(O)c2C(=O)O1` [2a-14]: the EC50 was 1.2 µM with HCC1954 tumor cells and 2.8 µM in the experiment with SK-BR-3 tumor cells.

In the case of `O=C1OCC/C=C/CC/C=C/C(=NOCC(=O)N2CCNCC2)Cc2c(Cl)c(O)cc(O)c21` [2a-15], the EC50 in the experiment on HCC1954 tumor cells and in the experiment with SK-BR-3 tumor cells was over 10 µM in each case.

For the compound `O=C(CON=C1/C=C/CC/C=C/CCOC(=O)c2c(O)cc(O)c(Cl)c2C1)NC1CCCCC1` [2a-16], the figures for the EC50 in the experiment on HCC1954 tumor cells and in the experiment on SK-BR-3 tumor cells were 0.45 µM and 0.55 µM, respectively.

Take `O=C(CON=C1/C=C/CC/C=C/CCOC(=O)c2c(O)cc(O)c(Cl)c2C1)NCc1ccccc1` [2a-17]: the 50% effective concentration (EC50) with HCC1954 tumor cells amounted to 8.5 µM; with SK-BR-3 tumor cells, 3.5 µM.

For `O=C1OCC/C=C/CC/C=C/C(=NOCC(=O)N2CCOCC2)Cc2c(Cl)c(O)cc(O)c21` [2a-18], the EC50 with HCC1954 tumor cells and in the experiment on SK-BR-3 tumor cells was over 10 µM in each case.

Consider `CCON=C1/C=C/CC/C=C/CCOC(=O)c2c(O)cc(O)c(Cl)c2C1` [2a-22], for which the results for the EC50 in the experiment with HCC1954 tumor cells and with SK-BR-3 tumor cells were 9.8 µM and 3.8 µM, respectively.
